PubChem BioAssay (NCI)
Where “and” joins values, the source holds several entries; their conditions need not be identical. Equal entries are not always repeated.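 Growth conditions: 96-well plates. Treatment: test compound, 48 hours, 5 concentrations. Analysis: linear interpolation between bracketing concentrations; unreached endpoints set to highest concentration. The concentration for 50% growth inhibition is given as GI50. The concentration for full growth arrest is given as TGI.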

How the values were obtained:
Assay in all cases: inhibition of tumour cell growth, NCI panel, 48 h
SK-MEL-2 melanoma = test system: SK-MEL-2 melanoma
KM12 colon = test system: KM12 colon
K-562 leukemia = test system: K-562 leukemia
HCT-15 colon = test system: HCT-15 colon
HOP-62 NSCLC = test system: HOP-62 NSCLC
OVCAR-8 ovarian = test system: OVCAR-8 ovarian
SK-MEL-5 melanoma = test system: SK-MEL-5 melanoma
SNB-19 CNS = test system: SNB-19 CNS
PC-3 prostate = test system: PC-3 prostate
UACC-257 melanoma = test system: UACC-257 melanoma
UO-31 renal = test system: UO-31 renal
NCI-H226 lung = test system: NCI-H226 lung
OVCAR-3 ovarian = test system: OVCAR-3 ovarian

| Molecule | TGI (SK-MEL-2 melanoma) | TGI (KM12 colon) [µM] | TGI (K-562 leukemia) [µM] | TGI (HCT-15 colon) [µM] | TGI (HOP-62 NSCLC) [µM] | TGI (OVCAR-8 ovarian) | TGI (SK-MEL-5 melanoma) | TGI (SNB-19 CNS) [µM] | TGI (PC-3 prostate) [µM] | TGI (UACC-257 melanoma) [µM] | TGI (UO-31 renal) | TGI (NCI-H226 lung) [µM] | TGI (OVCAR-3 ovarian) | GI50 (SK-MEL-2 melanoma) [nM] | GI50 (K-562 leukemia) [nM] | GI50 (OVCAR-8 ovarian) [µM] | GI50 (SK-MEL-5 melanoma) [nM] | GI50 (UACC-257 melanoma) [nM] | GI50 (OVCAR-3 ovarian) [nM] | GI50 (NCI-H226 lung) |
| --- | --- | --- | --- | --- | --- | --- | --- | --- | --- | --- | --- | --- | --- | --- | --- | --- | --- | --- | --- | --- |
| N#Cc1nc(C(=O)c2ccccc2)oc1N | > 100 µM | > 100 | > 100 | > 100 | > 100 | > 100 µM | > 100 µM | > 100 | > 100 | > 100 | – | – | – | – | – | – | – | – | – | – |
| COC1OC2COC(c3ccccc3)OC2C(OC(=S)c2ccccc2)C1O (stereo not drawn) | > 100 µM | – | > 100 | > 100 | 41.1 | 39.3 µM | > 100 µM | > 100 | 74.9 | > 100 | > 100 µM | > 100 | > 100 µM | – | – | – | – | – | – | – |
| c1ccc2c(c1)[C@@H]1O[C@@H]1[C@@]13O[C@@]21[C@H]1O[C@H]1c1ccccc13 | 37.5 µM | 29.2 | 41.7 | 48.8 | 30.8 | 39.6 µM | 26.7 µM | 40.1 | 30 | 37.2 | 51.1 µM | 31.3 | 32.1 µM | – | – | – | – | – | – | – |
| H-KIFKKFKTIIKKVWRIFGRF-NH2 | 6.23 µM | – | > 100 | – | – | > 100 µM | 5.8 µM | – | – | 9.58 | – | – | 5.01 µM | 2630 | 2820 | 3.28 | 2300 | 2850 | 2140 | – |
| Cc1cccc(-c2cc(=O)c3cc(C)cnc3[nH]2)c1 | > 100 µM | 16.4 | > 33.3 | > 26.8 | > 100 | – | 21 µM | – | > 56.9 | > 100 | > 100 µM | 2.79 | – | – | – | – | – | – | – | – |
| CC(=O)OC1COC(n2c(N)c(C#N)c(-c3ccccc3)c(C#N)c2=S)C(OC(C)=O)C1OC(C)=O (stereo not drawn) | > 100 µM and 68.4 µM | > 100 | – | > 100 | > 100 | > 100 µM and 97.3 µM | > 100 µM and 95.4 µM | > 100 | > 100 | > 100 | > 100 µM and 67.8 µM | > 100 | > 100 µM and 97.2 µM | – | – | – | – | – | – | 41.6 µM and 89.4 µM |
| CC1[C@@H]2C[C@@H]3O[C@@]34[C@H]3CCC5Cc6nc7c(nc6C[C@@]5(C)C3(O)CC(=O)[C@@]24CO[C@]12OC(C)(C)CC2O)CC1CC[C@@H]2C3=C[C@H]4O[C@@]5(O[C@@](C)(CO)C[C@@H]5O)C(C)[C@@]4(O)[C@]3(C)[C@@H](O)CC2[C@]1(C)C7 (stereo partly drawn) | 0.863 µM | 0.893 | 0.666 | 2.66 | 0.0729 | > 3.52 µM | > 3.52 µM | – | – | > 3.52 | 0.755 µM | > 3.52 | > 3.52 µM | – | – | – | – | – | – | – |
| C/C(=C\c1ccccc1)n1c(=O)cc(C)n1C | > 100 µM | > 100 | > 100 | – | > 100 | > 100 µM | > 100 µM | > 100 | > 100 | > 100 | > 100 µM | > 100 | > 100 µM | – | – | – | – | – | – | – |
| CC(=O)O[C@H]1CC[C@]2(C=O)[C@H]3CC[C@]4(C)[C@@H](C5=CC(=O)OC5)CC[C@]4(O)[C@@H]3CC[C@]2(O)C1 | 1.08 µM | – | > 100 | 0.455 | 0.833 | 1.01 µM | 0.473 µM | 2.24 | 1.38 | 1.63 | 1.48 µM | 1.97 | 0.622 µM | – | – | – | – | – | – | – |
| CC1C/C(=C\c2ccc(O)c(O)c2)C(=O)/C(=C/c2ccc(O)c(O)c2)C1 (stereo not drawn) | 34.8 µM | 20.9 | 27.4 | 25.5 | 24.4 | 48.7 µM | 13.7 µM | 22.5 | 29.9 | 28.7 | – | 9.64 | 18.1 µM | – | – | – | – | – | – | – |
| CCCCCC(=O)OCC1(CO)C/C(=C/CC(C(C)C)C(C)C)C(=O)O1 (stereo not drawn) | > 75 µM | 37.4 | – | > 75 | > 75 | > 75 µM | > 75 µM | > 75 | > 75 | > 75 | 38.2 µM | > 75 | > 75 µM | – | – | – | – | – | – | – |
| CC1CN=C(N(C(=O)Nc2ccccc2)C2CCCCC2)S1 (stereo not drawn) | 29.5 µM | 36.3 | 73.2 | 28.9 | > 100 | 75 µM | 28.4 µM | 81.8 | 31.3 | 30.2 | 32.3 µM | – | 31.8 µM | – | – | – | – | – | – | – |
| Cc1cc(S(=O)(=O)Nc2n[nH]c(N)n2)c(S)cc1Cl | > 10 µM | > 10 | > 10 | > 10 | > 10 | > 10 µM | > 10 µM | > 10 | > 10 | > 10 | – | > 10 | > 10 µM | – | – | – | – | – | – | – |
| Cc1cc(N)c2cc(NC(=O)CCCCCCCCC(=O)Nc3ccc4nc(C)cc(N)c4c3)ccc2n1 | > 100 µM | > 68.4 | > 100 | > 100 | > 100 | > 100 µM | > 100 µM | > 100 | – | 96.9 | > 100 µM | 56.3 | > 100 µM | – | – | – | – | – | – | – |
| C/C(=N\Nc1nc2ccccc2n1C)c1ccncn1 | > 100 µM | 30.7 | > 100 | > 88.1 | > 100 | > 40.9 µM | 11.6 µM | > 100 | > 100 | > 100 | 22.9 µM | > 45.7 | – | – | – | – | – | – | – | – |
| CC(=O)c1nc(C#N)c(N)o1 | > 100 µM | > 100 | > 100 | > 100 | > 100 | > 100 µM | – | > 100 | > 100 | > 100 | > 100 µM | > 100 | > 100 µM | – | – | – | – | – | – | – |
| O=c1[nH]c(=O)c2c([nH]1)[nH]c1ccccc12 | > 100 µM | > 100 | > 100 | > 100 | > 100 | > 100 µM | > 100 µM | > 100 | – | > 100 | > 100 µM | > 100 | > 100 µM | – | – | – | – | – | – | – |
| O=C(c1cccs1)N(C(=O)N1CCCCC1)c1ccccc1 | > 100 µM | > 100 | > 100 | > 100 | – | > 100 µM | > 100 µM | > 100 | > 100 | > 100 | > 100 µM | > 100 | > 100 µM | – | – | – | – | – | – | – |
